The record followed here is PMC8799717, “Pharmacological targeting PIKfyve and tubulin as an effective treatment strategy for double-hit lymphoma” (Cell Death Discovery, 2022).

Some targets named below: FLT3(D835Y) (Homo sapiens, UniProt P36888, D835Y); PLK3 (Homo sapiens, UniProt Q9H4B4); TGFBR2 (Homo sapiens, UniProt P37173); CLK2 (Homo sapiens, UniProt P49760); CDK7 (Homo sapiens, UniProt P50613); PDGFRB (Homo sapiens, UniProt P09619); MKNK1 (Homo sapiens, UniProt Q9BUB5); TIE1 (Homo sapiens, UniProt P35590); TNK2 (Homo sapiens, UniProt Q07912); EPHA3 (Homo sapiens, UniProt P29320); AURKC (Homo sapiens, UniProt Q9UQB9); MELK (Homo sapiens, UniProt Q14680); SYK (Homo sapiens, UniProt P43405); BUB1 (Homo sapiens, UniProt O43683); PLK1 (Homo sapiens, UniProt P53350); DMPK (Homo sapiens, UniProt Q09013).

Test in all cases: biochemical
What all share (set-up): KINOMEscan active-site-directed competition binding panel, 468 kinases, percent of DMSO control at 1 uM
What all share (settings): KINOMEscan binding, percent of DMSO control; read-out: Ctrl%

The target of the next test is T1, ERK1 (Homo sapiens, UniProt P27361).
T1 construct: gene MAPK3

Another test deals with T2, HPK1 (Homo sapiens, UniProt Q92918).
T2 construct: gene MAP4K1

A further test addresses T3, CDC2L2 (Homo sapiens, UniProt Q9UQ88).
T3 construct: gene CDK11A

In a further test the target is T4, MEK3 (Homo sapiens, UniProt P46734).
T4 construct: gene MAP2K3

Another test addresses T5, IKK-epsilon (Homo sapiens, UniProt Q14164).
T5 construct: gene IKBKE

The target of a further test is T6, TRKC (Homo sapiens, UniProt Q16288).
T6 construct: gene NTRK3

The target of test [1] is T7, JAK2(JH1domain-catalytic) (Homo sapiens, UniProt O60674).
T7 construct: JH1domain-catalytic

The next test concerns the target T8, BRK (Homo sapiens, UniProt Q13882).
T8 construct: gene PTK6

Structures are written as SMILES.

T8 sequence (Q13882 whole entry): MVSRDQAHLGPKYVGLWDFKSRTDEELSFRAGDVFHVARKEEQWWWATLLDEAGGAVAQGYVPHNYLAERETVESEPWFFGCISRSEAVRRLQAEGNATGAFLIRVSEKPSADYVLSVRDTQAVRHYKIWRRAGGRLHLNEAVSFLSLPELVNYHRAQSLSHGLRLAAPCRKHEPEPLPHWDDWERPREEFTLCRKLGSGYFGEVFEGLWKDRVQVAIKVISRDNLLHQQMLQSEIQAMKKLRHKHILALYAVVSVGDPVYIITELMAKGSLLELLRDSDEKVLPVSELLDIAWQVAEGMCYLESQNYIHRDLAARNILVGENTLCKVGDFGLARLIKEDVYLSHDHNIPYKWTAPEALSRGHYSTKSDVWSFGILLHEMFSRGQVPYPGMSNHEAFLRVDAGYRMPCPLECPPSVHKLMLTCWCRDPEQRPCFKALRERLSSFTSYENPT
T3 sequence (Q9UQ88 whole entry): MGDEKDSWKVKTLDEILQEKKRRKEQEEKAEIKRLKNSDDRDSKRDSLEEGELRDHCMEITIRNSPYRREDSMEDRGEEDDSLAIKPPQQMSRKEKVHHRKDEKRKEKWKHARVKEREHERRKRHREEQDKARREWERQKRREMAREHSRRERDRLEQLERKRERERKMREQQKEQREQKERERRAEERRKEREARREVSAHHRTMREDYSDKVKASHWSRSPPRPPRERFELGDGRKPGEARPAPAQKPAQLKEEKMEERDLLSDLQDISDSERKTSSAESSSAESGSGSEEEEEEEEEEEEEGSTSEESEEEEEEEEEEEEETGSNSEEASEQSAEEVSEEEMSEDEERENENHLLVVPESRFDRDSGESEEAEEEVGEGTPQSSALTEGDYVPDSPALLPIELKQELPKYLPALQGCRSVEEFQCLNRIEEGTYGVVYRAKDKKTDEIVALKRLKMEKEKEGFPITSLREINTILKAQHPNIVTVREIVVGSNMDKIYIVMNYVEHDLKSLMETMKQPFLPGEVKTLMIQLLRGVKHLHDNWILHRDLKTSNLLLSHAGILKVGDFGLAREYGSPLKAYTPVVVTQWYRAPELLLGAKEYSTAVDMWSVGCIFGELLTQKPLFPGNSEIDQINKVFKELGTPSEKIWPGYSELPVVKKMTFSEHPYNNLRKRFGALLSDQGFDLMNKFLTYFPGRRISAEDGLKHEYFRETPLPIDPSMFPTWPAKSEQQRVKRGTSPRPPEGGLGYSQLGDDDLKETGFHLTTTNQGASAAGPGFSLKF
Sequence of PDGFRB (P09619 whole entry): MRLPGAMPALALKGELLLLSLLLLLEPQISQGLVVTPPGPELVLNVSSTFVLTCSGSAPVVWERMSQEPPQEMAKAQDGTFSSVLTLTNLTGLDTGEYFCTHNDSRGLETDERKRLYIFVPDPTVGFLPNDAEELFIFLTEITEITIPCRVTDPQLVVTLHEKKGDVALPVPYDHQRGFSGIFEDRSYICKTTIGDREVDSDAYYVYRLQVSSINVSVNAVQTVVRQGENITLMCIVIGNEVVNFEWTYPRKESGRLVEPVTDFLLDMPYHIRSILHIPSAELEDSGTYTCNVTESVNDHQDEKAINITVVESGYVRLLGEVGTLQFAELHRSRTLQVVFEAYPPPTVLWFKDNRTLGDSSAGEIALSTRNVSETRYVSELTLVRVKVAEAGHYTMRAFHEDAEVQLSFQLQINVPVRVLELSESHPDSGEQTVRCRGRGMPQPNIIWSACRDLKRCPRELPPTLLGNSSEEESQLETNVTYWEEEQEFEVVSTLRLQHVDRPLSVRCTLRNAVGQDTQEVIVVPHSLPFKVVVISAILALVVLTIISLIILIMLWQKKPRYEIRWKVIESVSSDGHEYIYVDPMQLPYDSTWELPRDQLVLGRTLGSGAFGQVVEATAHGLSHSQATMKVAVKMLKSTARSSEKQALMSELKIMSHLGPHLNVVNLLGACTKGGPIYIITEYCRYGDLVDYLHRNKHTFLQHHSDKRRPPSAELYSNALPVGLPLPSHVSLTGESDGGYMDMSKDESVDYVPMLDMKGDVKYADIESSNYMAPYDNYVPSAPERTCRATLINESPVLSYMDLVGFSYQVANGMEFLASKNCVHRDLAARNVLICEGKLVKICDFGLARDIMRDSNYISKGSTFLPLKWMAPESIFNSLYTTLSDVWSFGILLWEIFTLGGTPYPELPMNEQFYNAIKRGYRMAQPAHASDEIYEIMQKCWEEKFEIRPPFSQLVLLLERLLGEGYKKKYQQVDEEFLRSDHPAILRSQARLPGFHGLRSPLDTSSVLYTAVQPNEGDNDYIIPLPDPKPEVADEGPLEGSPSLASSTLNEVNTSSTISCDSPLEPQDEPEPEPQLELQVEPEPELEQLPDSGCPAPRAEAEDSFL
Sequence of MKNK1 (Q9BUB5 whole entry): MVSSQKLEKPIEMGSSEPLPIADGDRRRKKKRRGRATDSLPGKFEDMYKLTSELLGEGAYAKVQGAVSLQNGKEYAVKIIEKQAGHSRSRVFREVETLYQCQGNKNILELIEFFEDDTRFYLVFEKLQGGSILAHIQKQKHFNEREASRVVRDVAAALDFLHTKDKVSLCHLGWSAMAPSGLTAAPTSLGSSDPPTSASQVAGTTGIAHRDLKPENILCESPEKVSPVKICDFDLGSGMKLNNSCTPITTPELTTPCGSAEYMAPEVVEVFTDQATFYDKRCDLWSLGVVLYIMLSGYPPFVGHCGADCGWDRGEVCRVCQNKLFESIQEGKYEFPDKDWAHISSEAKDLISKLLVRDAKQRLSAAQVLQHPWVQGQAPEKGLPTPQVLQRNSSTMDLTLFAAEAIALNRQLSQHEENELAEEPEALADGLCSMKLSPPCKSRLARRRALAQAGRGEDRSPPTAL
Sequence of DMPK (Q09013 whole entry): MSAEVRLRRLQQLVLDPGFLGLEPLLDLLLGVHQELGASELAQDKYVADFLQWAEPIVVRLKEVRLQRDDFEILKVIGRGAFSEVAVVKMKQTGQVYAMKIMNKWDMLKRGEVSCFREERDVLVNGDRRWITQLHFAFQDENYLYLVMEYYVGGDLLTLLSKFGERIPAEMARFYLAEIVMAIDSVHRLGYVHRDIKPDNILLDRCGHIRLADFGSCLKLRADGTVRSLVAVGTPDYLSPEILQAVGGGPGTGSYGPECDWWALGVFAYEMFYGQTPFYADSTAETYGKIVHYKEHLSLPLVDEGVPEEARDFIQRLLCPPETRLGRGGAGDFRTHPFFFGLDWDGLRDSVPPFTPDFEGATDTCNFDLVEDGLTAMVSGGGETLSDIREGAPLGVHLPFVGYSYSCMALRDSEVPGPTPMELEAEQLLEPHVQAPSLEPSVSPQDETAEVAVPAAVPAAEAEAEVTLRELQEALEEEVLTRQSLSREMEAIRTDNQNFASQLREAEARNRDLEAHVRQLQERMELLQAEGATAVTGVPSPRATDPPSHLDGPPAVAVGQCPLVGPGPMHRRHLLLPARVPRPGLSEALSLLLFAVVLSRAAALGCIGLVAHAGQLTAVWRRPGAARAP
Sequence of TNK2 (Q07912 whole entry): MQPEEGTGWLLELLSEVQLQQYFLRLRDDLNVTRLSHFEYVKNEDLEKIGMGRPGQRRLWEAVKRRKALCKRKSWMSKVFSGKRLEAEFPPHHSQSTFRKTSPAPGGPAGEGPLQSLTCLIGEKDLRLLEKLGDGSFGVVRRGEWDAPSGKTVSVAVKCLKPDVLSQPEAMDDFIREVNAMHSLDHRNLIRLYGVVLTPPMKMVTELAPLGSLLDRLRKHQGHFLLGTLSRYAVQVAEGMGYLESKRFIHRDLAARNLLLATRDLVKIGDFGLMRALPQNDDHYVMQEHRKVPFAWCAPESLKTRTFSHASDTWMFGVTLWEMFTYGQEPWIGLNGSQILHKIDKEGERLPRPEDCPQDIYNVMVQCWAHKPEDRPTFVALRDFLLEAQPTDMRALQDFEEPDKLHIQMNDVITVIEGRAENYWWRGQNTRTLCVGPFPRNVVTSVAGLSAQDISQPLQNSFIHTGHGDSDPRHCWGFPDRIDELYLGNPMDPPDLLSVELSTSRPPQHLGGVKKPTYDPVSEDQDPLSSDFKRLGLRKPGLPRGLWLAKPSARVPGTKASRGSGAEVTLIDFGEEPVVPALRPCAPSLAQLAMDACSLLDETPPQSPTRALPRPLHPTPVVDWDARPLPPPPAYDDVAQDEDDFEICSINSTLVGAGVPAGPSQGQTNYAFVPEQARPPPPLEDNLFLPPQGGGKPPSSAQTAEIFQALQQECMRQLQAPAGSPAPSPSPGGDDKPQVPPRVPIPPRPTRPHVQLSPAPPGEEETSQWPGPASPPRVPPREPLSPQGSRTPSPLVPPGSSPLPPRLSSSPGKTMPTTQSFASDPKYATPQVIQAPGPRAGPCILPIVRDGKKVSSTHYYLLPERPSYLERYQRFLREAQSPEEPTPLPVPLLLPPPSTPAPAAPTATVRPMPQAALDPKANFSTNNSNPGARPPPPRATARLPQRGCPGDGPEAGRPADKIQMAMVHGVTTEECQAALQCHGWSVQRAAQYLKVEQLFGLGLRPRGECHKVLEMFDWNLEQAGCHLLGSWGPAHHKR
T1 sequence (P27361 whole entry): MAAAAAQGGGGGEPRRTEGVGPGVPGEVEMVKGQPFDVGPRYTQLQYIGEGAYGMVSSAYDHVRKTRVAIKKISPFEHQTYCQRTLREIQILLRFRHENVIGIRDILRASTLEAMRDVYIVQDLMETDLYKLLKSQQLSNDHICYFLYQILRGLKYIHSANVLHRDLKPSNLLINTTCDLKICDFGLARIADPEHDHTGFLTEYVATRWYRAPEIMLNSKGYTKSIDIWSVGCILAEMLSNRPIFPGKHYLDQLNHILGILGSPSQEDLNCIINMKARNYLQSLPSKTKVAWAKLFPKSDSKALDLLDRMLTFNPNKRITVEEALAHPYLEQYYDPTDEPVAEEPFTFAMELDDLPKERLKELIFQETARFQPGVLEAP

On to `Cc1ccc(NC(=O)c2cccc(C(F)(F)F)c2)cc1Nc1cc(-c2cccnc2)nc2[nH]ccc12` [HZX-02-059], for which the remaining binding at 1 µM at FLT3(D835Y) is 100%; on PLK3 it was 93%; on TGFBR2, 90%; on CLK2, 92%; on CDK7 it was 69%; at ERK1 it was 99%. Also, the remaining binding at 1 µM is 72% on HPK1; 3.3% at PDGFRB; 100% on MKNK1; 80% at CDC2L2; 100% at TIE1; 98% at TNK2. Also, the remaining binding at 1 µM on EPHA3 turned out to be 27%; on MEK3 it was 83%; at IKK-epsilon, 70%; at TRKC, 100%; at AURKC it was 75%; at MELK, 96%. Besides, the remaining binding at 1 µM was 100% at SYK; 100% on BUB1; 100% at PLK1; 100% in test [1]; 81% at DMPK; 83% at BRK.
